According to patent US20160151369A1, “SUBSTITUTED 3-PHENYLPROPYLAMINE DERIVATIVES FOR THE TREATMENT OF OPHTHALMIC DISEASES AND DISORDERS” (ACUCELA INC., priority 2013, published 2016):

System: isomerase (recovery of 11-cis-retinal after bleaching)
Assay: In vivo murine isomerase assay (Table 3)
Settings: Mus musculus, po, mice
Protocol: The capability of compounds described herein to inhibit isomerase was determined by an in vivo murine isomerase assay. […] The recovery of 11-cis-retinal after bleaching can be used to estimate the activity of isomerase in vivo. Delayed recovery, as represented by lower 11-cis-retinal oxime levels, indicates inhibition of isomerization reaction.
Mice were gavaged with the test compound. […] The mice were allowed to recover 2 hours in the dark. The animals were then sacrificed by carbon dioxide inhalation. Retinoids were extracted from the eye and the regeneration of 11-cis-retinal was assessed at various time intervals.
After the mice were sacrificed, the eyes were immediately removed and placed in liquid nitrogen for storage.
The eyes were placed in 500 μL of bis-tris propane buffer (10 mM, pH˜7.3) and 20 μL of 0.8M hydroxile amine (pH˜7.3). The eyes were cut up into small pieces with small iris scissors and then thoroughly homogenized at 30000 rpm with a mechanical homogenizer (Polytron PT 1300 D) in the tube until no visible tissue remained. 500 μL of methanol and 500 μL of heptane were added to each tube. The tubes were attached to a vortexer so that the contents were mixed thoroughly for 15 minutes in room temperature. The organic phase was separated from the aqueous phase by centrifugation for 10 min at 13K rpm, 4° C. 240 μL of the solution from the top layer (organic phase) was removed and transferred to clean 300 μl glass inserts in HPLC vials using glass pipette and the vials were crimped shut tightly.
The samples were analyzed on an Agilent 1100 HPLC system with normal phase column: SILICA (Beckman Coutlier, dp 5 μm, 4.6 mM×250 mM). […] Loading volume for each sample was 100 μl; detection wavelength was 360 nm. The area under the curve for 11-cis retinal oxime was calculated by Agilent Chemstation software and was recorded manually. Data processing was performed using Prizm software.
Positive control mice (no compound administered) were sacrificed fully dark-adapted and the eye retinoids analyzed. Light (bleached) control mice (no compound administered) were sacrificed and retinoids isolated and analyzed immediately after light treatment.
A time course study was performed to determine the isomerase inhibitory activity of the test compound. […] The animals were then “photo-bleached” (5000 Lux white light for 10 minutes) at 2, 4, 8, 16 and 24 hours after dosing, and returned to darkness to allow recovery of the 11-cis-retinal content of the eyes. Mice were sacrificed 2 hours after bleaching, eyes were enucleated, and retinoid content is analyzed by HPLC.
Recovery control mice (vehicle-only treated) were light-treated and left to recover for 2 hours in the dark before sacrifice and analysis. Light control mice (vehicle only treated) were sacrificed for analysis immediately after photo-bleaching.
An in vivo dose response isomerase inhibition study was performed with test compound. […] Recovery and retinoid analysis were performed as described above. Dark control mice were vehicle-only treated, sacrificed fully dark adapted without light treatment, and analyzed. Recovery control mice and light control mice were included in the study as per the initial phase.

| Compound | inhibition at 1 mg/kg (4 h) | inhibition at 1 mg/kg (2 h) | other results |
| --- | --- | --- | --- |
| NCC[C@@H](O)c1cccc(OCC2CCSCC2)c1 [Example 8, (R)-3-Amino-1-(3-((tetrahydro-2H-thiopyran-4-yl)methoxy)phenyl)propan-1-ol] | 33.2% | – | – |
| NCC[C@@H](O)c1cccc(OCC2CCCS(=O)(=O)C2)c1 (mixture of isomers) [Example 10, 3-((3-((R)-3-Amino-1-hydroxypropyl)phenoxy)methyl)tetrahydro-2H-thiopyran 1,1-dioxide] | -7.6% | – | – |
| NCC[C@@H](O)c1cccc(OCc2ccncc2)c1 [Example 4, (R)-3-amino-1-(3-(pyridin-4-ylmethoxy)phenyl)propan-1-ol] | -8.7% | – | – |
| NCC[C@@H](O)c1cccc(NCC2CCOCC2)c1 [Example 23, (R)-3-Amino-1-(3-(((tetrahydro-2H-pyran-4-yl)methyl)amino)phenyl)propan-1-ol] | -1.4% | 4.4% | inhibition at 1 mg/kg (8 h): 1.5% |
| NCCCc1cccc(OCC2CCOCC2)c1 [Example 32, 3-(3-((Tetrahydro-2H-pyran-4-yl)methoxy)phenyl)propan-1-amine] | – | 14.2% | – |
| NCC[C@@H](O)c1cccc(OCC2Cc3ccccc3O2)c1 (mixture of isomers) [Example 13, (1R)-3-Amino-1-(3-((2,3-dihydrobenzofuran-2-yl)methoxy)phenyl)propan-1-ol] | – | 62.1% | – |
| NCC[C@@H](O)c1cccc(OCC2CCS(=O)(=O)CC2)c1 [Example 9, (R)-4-((3-(3-Amino-1-hydroxypropyl)phenoxy)methyl)tetrahydro-2H-thiopyran 1,1-dioxide] | -8.2% | – | – |
| NCC[C@@H](O)c1cccc(OCc2cccnc2)c1 [Example 5, (R)-3-Amino-1-(3-(pyridin-3-ylmethoxy)phenyl)propan-1-ol] | 3.1% | – | – |
| CC(=O)N1CCC(COc2cccc([C@H](O)CCN)c2)CC1 [Example 11, (R)-1-(4-((3-(3-Amino-1-hydroxypropyl)phenoxy)methyl)piperidin-1-yl)ethanone] | 2.6% | -4.7% | inhibition at 1 mg/kg (8 h): -3.8% |
| COC(=O)N1CCC(COc2cccc([C@H](O)CCN)c2)CC1 [Example 17, (R)-Methyl 4-((3-(3-amino-1-hydroxypropyl)phenoxy)methyl)piperidine-1-carboxylate] | 88% | 93% | inhibition at 0.01 mg/kg (2 h): 0%; inhibition at 0.03 mg/kg (2 h): -2%; inhibition at 0.1 mg/kg (2 h): 9%; inhibition at 0.3 mg/kg (2 h): 8%; inhibition at 3 mg/kg (2 h): 100%; inhibition at 1 mg/kg (8 h): 25%; inhibition at 1 mg/kg (16 h): -1%; inhibition at 1 mg/kg (24 h): -8% |
| Cc1cccc(COc2cccc([C@H](O)CCN)c2)n1 [Example 12, (R)-3-Amino-1-(3-((6-methylpyridin-2-yl)methoxy)phenyl)propan-1-ol] | 11.2% | – | – |
| NCC[C@@H](O)c1cccc(OCC2COc3ccccc3C2)c1 (mixture of isomers) [Example 19, (1R)-3-Amino-1-(3-(chroman-3-ylmethoxy)phenyl)propan-1-ol] | 91.4% | – | inhibition at 0.3 mg/kg (2 h): 49.4%; inhibition at 0.3 mg/kg (4 h): 40%; inhibition at 0.3 mg/kg (8 h): 15.5% |
| NCC[C@@H](O)c1cccc(NCC2CCCCC2)c1 [reference compound] | 96% | – | – |
| NCCC(O)c1cccc(OCC2CCOCC2)c1 (centres unmarked) [Example 2, 3-Amino-1-(3-((tetrahydro-2H-pyran-4-yl)methoxy)phenyl)propan-1-ol] | 89.9% | – | – |
| NCC[C@@H](O)c1cccc(OCC2CCCSC2)c1 (mixture of isomers) [Example 7, (1R)-3-Amino-1-(3-((tetrahydro-2H-thiopyran-3-yl)methoxy)phenyl)propan-1-ol] | 68% | 60.5% | inhibition at 1 mg/kg (8 h): 40.3% |
| NCC[C@@H](O)c1cccc(OCC2CCCO2)c1 (mixture of isomers) [Example 14, (1R)-3-Amino-1-(3-((tetrahydrofuran-2-yl)methoxy)phenyl)propan-1-ol] | 59.8% | 79.2% | inhibition at 1 mg/kg (8 h): 0.8% |
| NC/C=C/c1cccc(OCC2CCOCC2)c1 [Example 31, (E)-3-(3-((Tetrahydro-2H-pyran-4-yl)methoxy)phenyl)prop-2-en-1-amine] | – | 11.3% | – |
| NCC[C@@H](O)c1cccc(OCC2CCCOC2)c1 (mixture of isomers) [Example 3, (1R)-3-Amino-1-(3-((tetrahydro-2H-pyran-3-yl)methoxy)phenyl)propan-1-ol] | 94.2% | 98.7% | inhibition at 0.01 mg/kg (2 h): 1.2%; inhibition at 0.03 mg/kg (2 h): 2.7%; inhibition at 0.1 mg/kg (2 h): 4.2%; inhibition at 0.3 mg/kg (2 h): 75.2%; inhibition at 3 mg/kg (2 h): 102%; inhibition at 0.3 mg/kg (4 h): 59.7%; inhibition at 0.3 mg/kg (8 h): 14.8%; inhibition at 0.3 mg/kg (16 h): 1.6%; inhibition at 0.3 mg/kg (24 h): 4.1% |
| NCC[C@@H](O)c1cccc(OCc2ccsc2)c1 [Example 29, (R)-3-Amino-1-(3-(thiophen-3-ylmethoxy)phenyl)propan-1-ol] | 27.4% | – | – |
| CNCC[C@@H](O)c1cccc(OCC2CCOCC2)c1 [Example 33, (R)-3-(Methylamino)-1-(3-((tetrahydro-2H-pyran-4-yl)methoxy)phenyl)propan-1-ol] | 54.5% | 65.2% | inhibition at 1 mg/kg (8 h): 10.9%; inhibition at 1 mg/kg (16 h): -0.8%; inhibition at 1 mg/kg (24 h): 1.8% |
| NCC[C@@H](O)c1cccc(OCc2cccs2)c1 [Example 28, (R)-3-Amino-1-(3-(thiophen-2-ylmethoxy)phenyl)propan-1-ol] | 50.6% | – | – |
| NCC[C@@H](O)c1cccc(OCC2CCCC(=O)N2)c1 (some centres unmarked) [Example 27] | 9% | – | – |
